Experiments:
Ras-Raf binding = target: T1, Ras-Raf binding; experiment: In vitro binding assay: Ras-Raf binding inhibition (GST-Raf on resin, GTPγ[35S]-labeled Ras, scintillation counting); settings: GST-Raf fusion protein on resin, radioactive Ras, compound dissolved in 10% DMSO
T1 construct: fused on or other part: GST tag on Ras was cleaved off with PreScission protease before the test
Procedure: • 1) A fusion protein of Raf (target protein of Ras) and GST (glutathione S-transferase) was expressed in Escherichia coli using GST fusion protein expression vector (pGEX-6P-1 vector (GE Healthcare)). The expressed GST-Raf fusion protein was immobilized on an affinity carrier for purification (glutathione Sepharose 4B: resin (GE Healthcare)). • 2) Radioisotope-labeled Ras
GTPγ[^35S] (Perkin Elmer), which is one of the GTP analogs, was added to Ras in which GST tag was cleaved using GST fusion protein cleavage protease (PreScission protease (GE Healthcare)) to prepare radioisotope-labeled Ras. • 3) Measurement of Ras-Raf binding inhibition activity
GST-Raf fusion protein immobilized on the resin in the above-mentioned 1) and the radioactive Ras prepared in the above-mentioned 2) were incubated in the presence of various concentrations of a compound dissolved in 10% DMSO to promote the binding reaction between Ras and Raf. The resin in the reaction solution was washed, and then, the complex of GST-Raf fusion protein and radioactive Ras was eluted by adding glutathione. The binding activity between Ras and Raf was measured by scintillation counting of the radioactivity of the eluate. Thus, the Ras-Raf binding inhibition activity by addition of various compounds was evaluated.

[1] = system: human colorectal cancer cell line, SW480, which has active form of K-Ras; experiment: In vivo assay: tumor growth inhibition in SW480 xenograft in nude mice; settings: 80 mg/kg orally once a day, five consecutive days per week, after three-week administration; SW480 subcutaneous in female nude mice; control group = 100%
Procedure: A cell suspension (about 2×10^6 cells) of human colorectal cancer cell line, SW480, which has active form of K-Ras, was subcutaneously inoculated and implanted with a syringe at the right flank of 6 to 8-week-old nude mice (female). After a tumor grew to the grossly recognizable size (40-100 mm^3), a compound (80 mg/kg) dissolved in a solvent (Cremophor EL:Ethanol:Water=1:1:6) was orally administered once a day for five consecutive days per week. This is considered as the compound administration group. A solvent alone was administered to control group in the same manner. After the compound administration started, tumor volumes of both the groups were measured twice a week. Tumor growth inhibition rates were calculated by comparing tumor volumes of control group (100%) and those of compound administration group after three-week administration to evaluate anticancer activity of a compound. The tumor growth inhibition rates in the case of orally administering compounds of the present invention at 80 mg/Kg are shown in the following Table 7.

IC50 (Ras-Raf binding) [µM]	SMILES	tumor growth inhibition rate (%) [1] [%]
400	O=C1/C(=C/c2ccc(Br)cc2)SC(=S)N1NC1=NS(=O)(=O)c2ccccc21 [Example 6]	85
50	O=C1/C(=C/c2cccc(Oc3ccccc3)c2)SC(=S)N1NC1=NS(=O)(=O)c2ccccc21 [Example 12]	86
100	O=C1/C(=C/c2ccccc2Oc2ccccc2)SC(=S)N1NC1=NS(=O)(=O)c2ccccc21 [Example 13]	70
100	O=C1/C(=C/c2ccc(OCc3ccccc3)cc2)SC(=S)N1NC1=NS(=O)(=O)c2ccccc21 [Example 16]	69
160	O=C1/C(=C/c2ccccc2OCCOc2ccccc2)SC(=S)N1NC1=NS(=O)(=O)c2ccccc21 [Example 53]	
100	Cc1ccc(OCCOc2ccccc2/C=C2\SC(=S)N(NC3=NS(=O)(=O)c4ccccc43)C2=O)cc1 [Example 55]	
90	O=C1/C(=C/c2ccccc2OCCOc2ccc([N+](=O)[O-])cc2)SC(=S)N1NC1=NS(=O)(=O)c2ccccc21 [Example 56]	62

SMILES	IC50 (Ras-Raf binding) [µM]	tumor growth inhibition rate (%) [1] [%]
O=C1/C(=C/c2ccc(Oc3ccccc3)cc2)SC(=S)N1NC1=NS(=O)(=O)c2ccccc21 [Example 1, 3-[(4-oxo-5-(4-phenoxybenzylidene)-2-thioxothiazolidin-3-yl)amino]-1,2-benzisothiazole 1,1-dioxide]	70	88
O=C1/C(=C/c2ccc([N+](=O)[O-])cc2[N+](=O)[O-])SC(=S)N1NC1=NS(=O)(=O)c2ccccc21 [Example 7]	200	85
CC(C)(C)OC(=O)NCCOc1cccc(C=C2SC(=S)N(NC3=NS(=O)(=O)c4ccccc43)C2=O)c1 [Example 167, 3-[(4-Oxo-5-(3-(2-t-butoxycarbonylaminoethyloxy)benzylidene)-2-thioxothiazolidin-3-yl)amino]-1,2-benzothiazole 1,1-dioxide]	360	

— US9056862B2, “Thioxothiazolidine derivative having Ras function inhibitory effect” (NATIONAL UNIVERSITY CORPORATION KOBE UNIVERSITY, priority 2011, dated 2015)
